The results in this text go back to ChEMBL document CHEMBL2073926, “Cloning and functional expression of a mouse liver organic cation transporter” (Hepatology, 1999).

For data set [1], the target named is T1, Solute carrier family 22 member 1 (Mus musculus, UniProt O08966).
T1 sequence (O08966 whole entry): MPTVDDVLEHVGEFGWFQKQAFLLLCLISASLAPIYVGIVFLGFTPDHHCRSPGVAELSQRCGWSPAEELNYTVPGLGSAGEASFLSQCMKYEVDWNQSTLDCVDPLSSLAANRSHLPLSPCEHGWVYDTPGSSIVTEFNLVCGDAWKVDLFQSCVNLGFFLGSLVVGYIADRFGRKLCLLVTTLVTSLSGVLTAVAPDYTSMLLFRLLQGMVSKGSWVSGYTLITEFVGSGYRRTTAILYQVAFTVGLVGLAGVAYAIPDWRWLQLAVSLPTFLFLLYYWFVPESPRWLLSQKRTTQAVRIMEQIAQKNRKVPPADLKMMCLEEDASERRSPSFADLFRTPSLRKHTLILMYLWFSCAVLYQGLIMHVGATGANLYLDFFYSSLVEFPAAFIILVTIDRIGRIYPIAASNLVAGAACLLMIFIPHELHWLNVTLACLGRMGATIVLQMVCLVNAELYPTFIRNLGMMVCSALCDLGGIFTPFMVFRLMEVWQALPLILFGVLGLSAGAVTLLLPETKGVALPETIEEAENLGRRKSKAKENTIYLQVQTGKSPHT
Nature of the data set: in vitro. Particulars: xenopus laevis, probe TEA (140 uM).

Data set [2] deals with T1, Solute carrier family 22 member 1. Nature of the data set: TP_TRANSPORTER: inhibition of TEA uptake (TEA: 140 uM, Procainamide: 10000 uM) in Xenopus laevis oocytes. In kind it is functional, cell-based, Oocyte. More on the design: scale not given: the % may be the effect or the level left. Particulars: probe TEA (140 uM), read-out: Activity.
Substrate in data set [3]: CC[N+](CC)(CC)CC
Nature of the data set: cells, lysate or membranes named.

Regarding `Cc1ncc(C[n+]2csc(CCO)c2C)c(N)n1` [THIAMINE ION], in data set [1], the activity at 1000 µM worked out at 12.7%. `CCN(CC)CCNC(=O)c1ccc(N)cc1` [PROCAINAMIDE]: the activity at 10000 uM in data set [2] was 30.1%.

B1: Solute carrier family 22 member 1 (Mus musculus) (protein)
chain: MPTVDDVLEHVGEFGWFQKQAFLLLCLISASLAPIYVGIVFLGFTPDHHCRSPGVAELSQRCGWSPAEELNYTVPGLGSAGEASFLSQCMKYEVDWNQSTLDCVDPLSSLAANRSHLPLSPCEHGWVYDTPGSSIVTEFNLVCGDAWKVDLFQSCVNLGFFLGSLVVGYIADRFGRKLCLLVTTLVTSLSGVLTAVAPDYTSMLLFRLLQGMVSKGSWVSGYTLITEFVGSGYRRTTAILYQVAFTVGLVGLAGVAYAIPDWRWLQLAVSLPTFLFLLYYWFVPESPRWLLSQKRTTQAVRIMEQIAQKNRKVPPADLKMMCLEEDASERRSPSFADLFRTPSLRKHTLILMYLWFSCAVLYQGLIMHVGATGANLYLDFFYSSLVEFPAAFIILVTIDRIGRIYPIAASNLVAGAACLLMIFIPHELHWLNVTLACLGRMGATIVLQMVCLVNAELYPTFIRNLGMMVCSALCDLGGIFTPFMVFRLMEVWQALPLILFGVLGLSAGAVTLLLPETKGVALPETIEEAENLGRRKSKAKENTIYLQVQTGKSPHT
Turning to B1, the Km in data set [3] came out at 38 µM.

For orientation: Km means the substrate concentration at which the rate is half of its maximum.
